Like-named read-outs stand apart in the source and are kept apart here. One block for each compound: values may come before it.
Legend:
[1] = biological target: T1, Candida antartica lipase fraction B (CALB) (Moesziomyces antarcticus, UniProt P41365); assay type: biochemical
T1 construct: purchased Boehringer Mannheim CHIRAZYME L-2
T1 sequence (P41365 26-342): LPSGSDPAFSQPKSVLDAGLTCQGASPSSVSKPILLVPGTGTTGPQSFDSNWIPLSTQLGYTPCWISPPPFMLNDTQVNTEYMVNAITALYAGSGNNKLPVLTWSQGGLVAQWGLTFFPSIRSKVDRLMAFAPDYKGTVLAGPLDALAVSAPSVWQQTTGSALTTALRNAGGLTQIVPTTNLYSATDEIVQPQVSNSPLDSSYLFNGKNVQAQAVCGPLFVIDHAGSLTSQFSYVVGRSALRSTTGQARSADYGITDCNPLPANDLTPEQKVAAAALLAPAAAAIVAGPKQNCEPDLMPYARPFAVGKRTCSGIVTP
Description: Using CALB for the diastereomeric resolution of five of the six possible pairs of diastereomers of N-(methoxycarbonyl)-4-hydroxyproline methyl esters produced the diastereomeric excesses at the indicated conversions listed in Table 1 below.
(§1) A 3.0 mL aqueous solution containing 50 mM N-(methoxycarbonyl)-trans-4-hydroxy-L-proline methyl ester and 50 mM N-(methoxycarbonyl)-cis-4-hydroxy-D-proline methyl ester in 0.100M potassium phosphate (pH 7.0) was mixed with 2.1 mg/mL of Candida antartica lipase fraction B at 25° C. The reaction was analyzed by removal of a 0.200 mL sample and mixing with an equivalent volume of 0.100M propionic acid (HPLC internal standard) in water. The resulting solution was filtered through a 10K molecular weight cut-off filter to remove the enzyme and the filtrate analyzed by high pressure liquid chromatography on a HPX-87H column (Bio-Rad, 30 cm×7.8 mm) to determine the percent conversion of each isomer of the diastereomeric mixture, and the diastereomeric excess of the N-(methoxycarbonyl)-cis-4-hydroxy-D-proline methyl ester.
A 2.0 mL aqueous solution containing 50 mM N-(methoxycarbonyl)-trans-4-hydroxy-L-proline methyl ester and 50 mM N-(methoxycarbonyl)-cis-4-hydroxy-D-proline methyl ester in 0.100M potassium phosphate (pH 7.0) was mixed with 403 mg of immobilized Candida antartica lipase fraction B (Boehringer Mannheim, CHIRAZYME® L-2, c.-f., C2, lyo.) at 31° C. The reaction was analyzed by mixing the entire reaction mixture with an equivalent volume of 0.100M propionic acid (HPLC internal standard) in water […]. An aliquot of the resulting solution was filtered through a 10K molecular weight cut-off filter to remove the enzyme and the filtrate analyzed by high pressure liquid chromatography on a HPX-87H column (Bio-Rad, 30 cm×7.8 mm) to determine the percent conversion of each isomer of the distereomeric mixture, and the diastereomeric excess of the N-(methoxycarbonyl)-cis-4-hydroxy-D-proline methyl ester. After 7 h, a 94% diastereomeric excess of N-(methoxycarbonyl)-cis-4-hydroxy-D-proline methyl ester was obtained at 49% conversion of the diastereomeric mixture (3.2% N-(methoxycarbonyl)-trans-4-hydroxy-L-proline methyl ester remained).
as §1, with “A 5.0” for “A 3.0”, “containing 51” for “containing 50”, “and 51” for “and 50”, “with 50” for “with 2.1”, “the N-(methoxycarbonyl)-trans-4-hydroxy-D-prolinemethyl” for “the N-(methoxycarbonyl)-cis-4-hydroxy-D-proline methyl”
A 5.0 mL aqueous solution containing 50 mM N-(methoxycarbonyl)-cis-4-hydroxy-D-proline methyl ester and 50 mM N-(methoxycarbonyl)-cis-4-hydroxy-L-proline methyl ester in 0.100M potassium phosphate (pH 7.0) and 50 mg/mL of Candida antartica lipase fraction B was mixed at 25° C. The reaction was analyzed by removal of two 0.200 mL aliquots at pre-determined times. One 0.200 mL aliquot was mixed with an equivalent volume of 0.100M propionic acid (HPLC internal standard) in water, and the resulting solution filtered through a 10K molecular weight cut-off filter to remove the enzyme. The filtrate was then analyzed by high pressure liquid chromatography on a HPX-87H column (Bio-Rad, 30 cm×7.8 mm) to determine the total percent conversion of both the D- and L-proline isomers of the N-(methoxycarbonyl)-cis-4-hydroxyproline methyl esters. […]

[2] = biological target: T1, Candida antartica lipase fraction B (CALB); assay type: biochemical; conditions: 0.20m succinate, 5 h, pH 6
Description: (§2) Reacting a 0.10M solution of the 1:1 mixture of KDP(MEMC) and KLP(MEMC) in 0.20M succinate (pH 6.0) at 25° C. for 5 h with approximately 1-3 mg/mL of Candida antartica lipase fraction B (CALB) produced a 95% ee (substrate) of KDP(MEMC) at 51% conversion. […] The calculated enantioselectivity (E) at 51% conversion was E=81.
(§3) The enzymatic hydrolysis reaction of KDP(MEMC) and KLP(MEMC) using CALB (described above) was repeated at pH 5.0 in 0.20M acetate buffer (Example 2), and a 100% ee (substrate) of the D-isomer was obtained at 51% conversion (E=>1000); the reaction rate was approximately 50% of the rate at pH 6.0, and the slight loss of the D-isomer at pH 5.0 was again observed in the absence of added enzyme (95% recovery at pH 5.0 after 24 h with no enzyme).
The procedure described in Example I was repeated using Candida antartica lipase fraction B (CALB), except that the reaction was run in 0.200M sodium cetate (pH 5.0) instead of the 0.20M sodium succinate buffer (pH 6.0) used for Candida antartica lipase fraction B in Example 1. Aqueous solutions (5.0 mL) containing varying concentrations of a racemic mixture of N-(methoxycarbonyl)-4-keto-D,L-proline methyl ester and CALB were mixed at 15° C., 25° C., 35° C. or 45° C.
An aqueous solution (5.0 mL) containing 25 mM N-(methoxycarbonyl)-4-keto-Dproline methyl ester and 25 mM N-(methoxycarbonyl)-4-keto-L-proline methyl ester in 0.200M sodium acetate (pH 5.0) was mixed with 2.5 g of immobilized Candida antartica lipase fraction B (Boehringer Mannheim, CHIRAZYME® L-2, c.-f., C2, lyo.) at 25° C. […] The dichloromethane extract was then analyzed by chiral gas chromatography on a Chiraldex G-TA column (Advanced Separation Technologies, Inc., 50 m×0.32 mm ID) to determine the amounts of the unreacted D- and L-isomers. After 31 h, an 85% enantiomeric excess of N-(methoxycarbonyl)-4-keto-D-proline methyl ester was obtained at 41% conversion of the racemic mixture.
A 200 mL aqueous solution containing 0.200M sodium acetate (pH 5.0), 1.3325 g of Candida antartica lipase fraction B, and 4.02 g of racemic N-(methoxycarbonyl)-4-keto-D,L-proline methyl ester (100 mM) was stirred at 25° C. After 24 h, an 96% enantiomeric excess of N-(methoxycarbonyl)-4-keto-D-proline methyl ester was obtained at 50% conversion of the racemic mixture. The reaction mixture was filtered using a 10,000 MWCO membrane filter (Amicon) to remove the enzyme catalyst, and the filtrate extracted with three 200 mL portions of dichloromethane. The combined organic extracts were dried over magnesium sulfate, filtered, and the dichloromethane removed from the filtrate by rotary evaporation at reduced pressure. Residual dichloromethane was removed from the resulting colorless oil at high vacuum (50 millitorr) to produce N-(methoxycarbonyl)-4-keto-D-proline methyl ester as a white solid (1.99 g, 99% isolated yield, 99% purity (by GC), 97% ee).
An aqueous solution (2.0 mL) containing 50 mM N-(ethoxycarbonyl)-4-keto-D-proline ethyl ester and 50 mM N-(ethoxycarbonyl)-4-keto-L-proline ethyl ester in 0.200M sodium acetate (pH 5.0) and 30 mg/mL of Candida antartica lipase fraction B was mixed at 25° C. […] The dichloromethane extract was then analyzed by chiral gas chromatography on a Chiraldex G-TA column (Advanced Separation Technologies, Inc., 50 m×0.32 mm ID) to determine the amounts of the unreacted D- and L-isomers. After 24 h, a 100% enantiomeric excess of N-(ethoxycarbonyl)-4-keto-D-proline ethyl ester was obtained at 51% conversion of the racemic mixture.
An aqueous solution (1.0 mL) containing 19 mM of N-(2-phenylacetyl)-4-keto-D-proline methyl ester and 19 mM of N-(2-phenylacetyl)-4-keto-L-proline methyl ester in 0.200M sodium acetate (pH 5.0) and 25 mg/mL of Candida antartica lipase fraction B was mixed at 25° C. […]

[3] = Stability of aqueous solutions of the esters in the absence of enzyme; assay type: physicochemical; conditions: for isomer lost without added enzyme: pH 6.0, identical reaction conditions (0.20M succinate, 25° C.), 5 h
Description: as §2, §3
The pH of the reaction mixture is also chosen to optimize the reaction rate, the stability of the enzyme catalyst activity, and the stability of the ketoproline or hydroxyproline derivatives. The stability of aqueous solutions of N-(alkoxy-carbonyl)-4-ketoproline alkyl esters or N-(alkoxycarbonyl)-4-hydroxyproline alkyl esters were dependent on pH. […] For resolution of mixtures of N-(alkoxycarbonyl)-4-keto-D,L-proline alkyl esters, a pH range of from 3.0 to 6.0 is preferred, and a pH range of from 4.0 to 5.0 is most preferred. For resolution of diastereomeric mixtures of N-(alkoxycarbonyl)-4-hydroxy-proline alkyl esters, a pH range of from 3.0 to 7.5 is preferred, and a pH range of from 6.0 to 7.0 is most preferred.

[4] = biological target: T1, Candida antartica lipase fraction B (CALB); experiment: Relative rates of hydrolysis of N-(alkoxycarbonyl)-trans-4-hydroxy-L-proline methyl esters by CALB; assay type: biochemical; conditions: 50 mM substrate, 3.0 mg/mL CALB, 25° C.
Description: A 2.0 mL aqueous solution containing 50 mM N-(methoxycarbonyl)-trans-4-hydroxy-L-proline methyl ester, or 50 mM N-(ethoxycarbonyl)-trans-4-hydroxy-L-proline methyl ester, or 50 mM N-(tert-butoxycarbonyl)-trans-4-hydroxy-L-proline methyl ester in 0.100M potassium phosphate (pH 7.0) and 3.0 mg/mL of Candida antartica lipase fraction B was mixed at 25° C. The reactions were analyzed by removal of 0.200 mL aliquots at pre-determined times and mixing the sample with an equivalent volume of 0.100M propionic acid (HPLC internal standard) in water, and filtering the resulting solution through a 10K molecular weight cut-off filter to remove the enzyme. The filtrate was then analyzed by high pressure liquid chromatography on a HPX-87H column (Bio-Rad, 30 cm×7.8 mm) to determine the percent conversion of the N-(alkoxycarbonyl)-trans-4-hydroxy-L-proline methyl ester. Complete hydrolysis of the methyl ester of the N-methoxy-, N-ethoxy-, and N-tert-butoxycarbonyl derivatives occurred in 5 h, 2 h, and 6 h, respectively, and the initial reaction rates were 5.7, 18.7, and 3.3 micromoles/h/mg enzyme catalyst, respectively.

[5] = candida antartica lipase b, 24 h, 51000 µM, pH 7

methyl ester hydrolysis by CALB ([1]; under reaction conditions): no hydrolysis
SMILES: COC(=O)[C@H]1C[C@@H](O)CN1C(=O)OC [CHDP(MEMC), N-(methoxycarbonyl)-cis-4-hydroxy-D-proline methyl ester]

isomer remaining [1, 5]: 3.0%
SMILES: COC(=O)[C@@H]1C[C@H](O)CN1C(=O)OC [CHLP(MEMC), N-(methoxycarbonyl)-cis-4-hydroxy-L-proline methyl ester]
isomer remaining ([1]; 50 mM each, 50 mg/mL CALB, pH 7.0, 25° C., 47 h): no N-(methoxycarbonyl)-cis-4-hydroxy-L-proline methyl ester remained

share of isomer remaining at 51% conversion [2]: 97.5%
recovery with no enzyme ([3]; pH 5.0, after 24 h): 95%
isomer lost without added enzyme [3]: approximately 3%
SMILES: COC(=O)[C@H]1CC(=O)CN1C(=O)OC [KDP(MEMC), N-(methoxycarbonyl)-4-keto-D-proline methyl ester]

share of isomer remaining at 51% conversion [2]: 2.5%
isomer lost without added enzyme [3]: approximately 3%
SMILES: COC(=O)[C@@H]1CC(=O)CN1C(=O)OC [KLP(MEMC), N-(methoxycarbonyl)-4-keto-L-proline methyl ester]

isomer remaining [1, 5]: 82.7%
SMILES: COC(=O)[C@H]1C[C@H](O)CN1C(=O)OC [THDP(MEMC), N-(methoxycarbonyl)-trans-4-hydroxy-D-proline methyl ester]

isomer remaining ([1]; candida antartica lipase b, 7 h, 50000 µM, pH 7): 3.2%
time to complete hydrolysis of the methyl ester ([4]; 0.100M potassium phosphate pH 7.0): 5 h
initial reaction rate ([4]; pH 7.0): 5.7 micromoles/h/mg enzyme catalyst
SMILES: COC(=O)[C@@H]1C[C@@H](O)CN1C(=O)OC [THLP(MEMC), N-(methoxycarbonyl)-trans-4-hydroxy-L-proline methyl ester]
isomer remaining ([1]; 50 mM each, 2.1 mg/mL CALB, pH 7.0, 25° C., 24 h): no N-(methoxycarbonyl)-trans-4-hydroxy-L-proline methyl ester remained
isomer remaining ([1]; 50 mM each, 4.0 mg/mL CALB, pH 7.0, 25° C., 24 h): no N-(methoxycarbonyl)-trans-4-hydroxy-L-proline methyl ester remained

From US5928933A, “Process for the enzymatic resolution of N-(alkoxycarbonyl)-4-ketoproline alkyl esters or N-(alkoxycarbonyl)-4-hydroxyproline alkyl esters using Candida antarctica lipase B” (priority 1998, dated 1999)
